Earlier results in patent US20160220569A1, “CDK4/6 Inhibitor Dosage Formulations For The Protection Of Hematopoietic Stem And Progenitor Cells During Chemotherapy” (G1 Therapeutics, Inc., priority 2015, published 2016).
Read-outs that look alike come from different tables or passages of the source.

Legend:
[1] = cited from earlier work
[2] = cited from earlier work; remark: listed apart in the source
[3] = Grade 3/4 neutropenia and leukopenia with palbociclib

Compound: CCN1CCN(Cc2ccc(Nc3ncc(F)c(-c4cc(F)c5nc(C)n(C(C)C)c5c4)n3)nc2)CC1 [Abemaciclib]
- diarrhea in clinical trials ([1]; abemaciclib, gastrointestinal toxicity): greater than 50%

Compound: CC(=O)c1c(C)c2cnc(Nc3ccc(N4CCNCC4)cn3)nc2n(C2CCCC2)c1=O [palbociclib, 6-acetyl-8-cyclopentyl-5-methyl-2-(5-piperazin-1-yl-pyridin-2-ylammino)-8H-pyrido-[2,3-d]-pyrimidin-7-one]
- patients requiring a dose interruption [1, 3]: 71%
- patients requiring a dose reduction [1, 3]: 35%
- AUC (0-10) ([2]; 100 mg QD, Day 1): 333 ng·h/mL
- Cmax ([2]; 100 mg QD, Day 1): 44 ng/mL
- Tmax ([2]; 100 mg QD, Day 1): 4 h
- AUC (0-10) ([2]; 100 mg QD, Day 8): 433 ng·h/mL
- Cmax ([2]; 100 mg QD, Day 8): 58 ng/mL
- Tmax ([2]; 100 mg QD, Day 8): 4 h
- AUC (0-10) ([2]; 150 mg QD, Day 1): 622 ng·h/mL
- Cmax ([2]; 150 mg QD, Day 1): 78 ng/mL
- Tmax ([2]; 150 mg QD, Day 1): 6 h
- AUC (0-10) ([2]; 150 mg QD, Day 8): 1599 ng·h/mL
- Cmax ([2]; 150 mg QD, Day 8): 194 ng/mL
- Tmax ([2]; 150 mg QD, Day 8): 7 h
- AUC(0-inf) ([2]; 150 mg oral): 2002 n*hr/ml
- CL/F ([2]; 150 mg oral): 88.5 L/h
- Cmax ([2]; 150 mg oral): 78 ng/mL
- T1/2 ([2]; 150 mg oral): 26.7 h
- AUC (0-10) ([2]; 200 mg QD, Day 1): 525 ng·h/mL
- Cmax ([2]; 200 mg QD, Day 1): 81 ng/mL
- Tmax ([2]; 200 mg QD, Day 1): 5.7 h
- AUC (0-10) ([2]; 200 mg QD, Day 8): 1395 ng·h/mL
- Cmax ([2]; 200 mg QD, Day 8): 174 ng/mL
- Tmax ([2]; 200 mg QD, Day 8): 4 h
- AUC (0-10) ([2]; 225 mg QD, Day 1): 718 ng·h/mL
- Cmax ([2]; 225 mg QD, Day 1): 104 ng/mL
- Tmax ([2]; 225 mg QD, Day 1): 4 h
- AUC (0-10) ([2]; 225 mg QD, Day 8): 1491 ng·h/mL
- Cmax ([2]; 225 mg QD, Day 8): 186 ng/mL
- Tmax ([2]; 225 mg QD, Day 8): 4.5 h
- T1/2 ([2]; palbociclib, literature): roughly 26.7 hours

Compound: CN(C)C(=O)c1cc2cnc(Nc3ccc(N4CCNCC4)cn3)nc2n1C1CCCC1 [ribociclib]
- associated adverse effect ([1]; ribociclib administration): QT prolongation
